Test system: mice
Test: Hot plate model of acute thermal pain
Assay type: in vivo
Details: hot plate 46.0° C.±1.0° C, tested prior to and 30 min after drug administration, cut-off 120 s
Protocol: The device consisted of an electrically heated surface and an open plexiglass tube (34 cm high×44 cm diameter), as per the hot plate test adapted from Eddy and Leimbach (1953); The animals were confined to the heated surface. The temperature was kept at 46.0° C.±1.0° C. Mice were placed on the hot plate, and the time, recorded with a stopwatch, until either licking of the hind paw or jumping were initiated. Animals were tested prior to and 30 min after drug administration. The pre-drug latencies were between 17 and 45 s. The maximum possible effect (MPE) was defined as the lack of a nociceptive response during the exposure to the heat stimulus. The percentage of MPE was calculated according to the formula: [(T1−T0)/(T2−T0)]×100, where T0 and T1 were the latencies obtained before and after drug injection, and T2 was the cut-off time (120 s).
Data are expressed as mean (±SEM) % MPE. p<0.05 versus vehicle control.

SMILES | antinociception in hot plate test (% MPE)
CCC(c1cccc(OC(=O)CC2(CN)CCCCC2)c1)C(C)CN(C)C (centres unmarked) [Compound of Formula 25] | induced dose-dependent antinociception and reached full efficacy
CN1CC[C@]23c4c5ccc(O)c4O[C@H]2[C@@H](O)C=C[C@H]3[C@H]1C5 [morphine] | induced dose-dependent antinociception and reached full efficacy
